# Measured values reported in patent EP0428423A2, “Aryloxy alkyl benzenes, processes for their preparation and pharmaceutical compositions containing them” (LIPHA S.A., priority 1989, dated 1991).
# Where two headings read alike, the source gives them in different places.
# Experiments:
# [1] = target: T1, ECHANGEUR D'ANIONS (Homo sapiens, UniProt P02730); assay: Anion exchanger of human erythrocytes; assay type: cell-based, ERYTHROCYTES HUMAINS; conditions: for IC50: read-out: EFFET SUR L'ECHANGEUR D'ANIONS IC 50
# T1 construct: systèmes de transport du sodium et du potassium des érythrocytes humains; endogenous in cells; host or cells: human erythrocytes
# T1 sequence (P02730 1-911): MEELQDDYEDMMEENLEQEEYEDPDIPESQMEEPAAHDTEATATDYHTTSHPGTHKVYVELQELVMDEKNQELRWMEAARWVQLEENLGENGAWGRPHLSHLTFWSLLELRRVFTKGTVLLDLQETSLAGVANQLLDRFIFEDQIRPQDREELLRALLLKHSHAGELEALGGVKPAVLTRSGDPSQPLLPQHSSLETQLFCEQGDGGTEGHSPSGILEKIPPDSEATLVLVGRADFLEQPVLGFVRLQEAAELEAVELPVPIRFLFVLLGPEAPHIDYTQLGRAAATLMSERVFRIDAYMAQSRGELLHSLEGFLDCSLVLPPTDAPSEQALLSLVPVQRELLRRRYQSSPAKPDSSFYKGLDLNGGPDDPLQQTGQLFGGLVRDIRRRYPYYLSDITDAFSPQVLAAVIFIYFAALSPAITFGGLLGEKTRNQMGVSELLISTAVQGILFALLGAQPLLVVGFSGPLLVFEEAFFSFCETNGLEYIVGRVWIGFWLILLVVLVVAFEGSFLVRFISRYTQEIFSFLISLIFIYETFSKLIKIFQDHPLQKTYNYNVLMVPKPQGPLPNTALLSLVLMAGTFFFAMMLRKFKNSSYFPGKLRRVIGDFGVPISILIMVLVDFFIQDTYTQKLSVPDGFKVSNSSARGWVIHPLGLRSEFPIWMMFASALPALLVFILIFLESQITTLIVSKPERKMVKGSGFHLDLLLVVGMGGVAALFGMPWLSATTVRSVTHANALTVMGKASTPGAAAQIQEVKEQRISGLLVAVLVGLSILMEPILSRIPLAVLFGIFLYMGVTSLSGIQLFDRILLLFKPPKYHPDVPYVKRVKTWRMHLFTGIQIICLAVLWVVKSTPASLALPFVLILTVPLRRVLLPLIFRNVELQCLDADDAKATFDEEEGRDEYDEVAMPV
# Source text: Cet effet a été étudié selon la méthodologie décrite par G. GARAY et coll. dans Naunyn-Schmidberg's Arch. Pharmakol. 334 (1986) 202-209 et dans Bioch. Pharm. 33 (1984) 2013-2020.
# [2] = system: RAT; assay: Diuretic activity in the rat (hourly urine volume, sodium and potassium assay); assay type: in vivo; conditions: for minimal effective dose: po, read-out: Dose minimale active; for Pouvoir diurétique en % / Rapport Na/K en %: PO, at the dose (minimal active dose)
# Source text: (§1) d'urine sont déterminés toutes les heures. Le dosage de sodium et du potassium est effectué par spectrophotométrie.
# [3] = system: SOURIS; assay: Diuretic activity in the mouse (hourly urine volume, sodium and potassium assay); assay type: in vivo; conditions: for minimal effective dose: Mus musculus, po, read-out: Dose minimale active; for Pouvoir diurétique en % / Rapport Na/K en %: PO, at the dose (minimal active dose)
# Source text: as §1
# [4] = target: T2, COTRANSPORT Na-K (Homo sapiens, UniProt P55011); assay: Na-K cotransport of human erythrocytes; assay type: cell-based, ERYTHROCYTES HUMAINS
# T2 construct: systèmes de transport du sodium et du potassium des érythrocytes humains; endogenous in cells; host or cells: human erythrocytes
# T2 sequence (P55011 1-1212): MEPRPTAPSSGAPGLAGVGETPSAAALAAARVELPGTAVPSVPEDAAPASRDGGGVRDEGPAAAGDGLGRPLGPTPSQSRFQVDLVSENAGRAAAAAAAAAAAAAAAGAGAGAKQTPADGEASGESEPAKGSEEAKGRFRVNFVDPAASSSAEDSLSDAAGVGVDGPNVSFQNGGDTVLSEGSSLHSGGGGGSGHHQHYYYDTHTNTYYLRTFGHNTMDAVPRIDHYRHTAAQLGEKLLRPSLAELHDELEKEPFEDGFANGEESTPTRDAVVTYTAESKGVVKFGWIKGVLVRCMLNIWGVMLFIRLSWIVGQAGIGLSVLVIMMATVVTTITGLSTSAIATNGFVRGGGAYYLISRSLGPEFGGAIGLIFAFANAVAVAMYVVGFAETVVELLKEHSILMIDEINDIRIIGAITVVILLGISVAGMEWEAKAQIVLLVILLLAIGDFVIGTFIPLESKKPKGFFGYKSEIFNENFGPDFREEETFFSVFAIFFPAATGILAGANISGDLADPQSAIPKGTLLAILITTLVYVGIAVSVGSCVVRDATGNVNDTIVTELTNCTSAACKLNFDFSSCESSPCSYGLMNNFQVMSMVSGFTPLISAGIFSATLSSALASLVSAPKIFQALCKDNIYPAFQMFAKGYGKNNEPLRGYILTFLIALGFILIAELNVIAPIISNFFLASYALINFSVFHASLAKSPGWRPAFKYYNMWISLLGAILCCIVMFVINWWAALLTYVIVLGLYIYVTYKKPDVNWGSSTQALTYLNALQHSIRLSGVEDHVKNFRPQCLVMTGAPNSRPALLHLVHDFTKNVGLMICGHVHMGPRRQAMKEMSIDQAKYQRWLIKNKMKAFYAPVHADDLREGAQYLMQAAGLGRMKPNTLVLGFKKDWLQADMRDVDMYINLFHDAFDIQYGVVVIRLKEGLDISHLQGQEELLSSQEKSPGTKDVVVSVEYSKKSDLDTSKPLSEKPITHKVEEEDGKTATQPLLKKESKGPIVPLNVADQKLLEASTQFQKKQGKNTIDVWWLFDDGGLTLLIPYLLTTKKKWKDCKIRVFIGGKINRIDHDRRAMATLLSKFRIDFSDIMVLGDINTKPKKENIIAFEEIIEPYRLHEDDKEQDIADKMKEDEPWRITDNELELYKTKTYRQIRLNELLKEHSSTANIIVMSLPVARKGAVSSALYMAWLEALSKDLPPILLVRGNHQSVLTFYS
# Source text: Cet effet a été étudié selon la méthodologie décrite par G. GARAY et coll. dans Naunyn-Schmidberg's Arch. Pharmakol. […] Pharm.
# [5] = system: plasmas riches en plaquettes provenant de sang de rat; assay: Platelet anti-aggregation in vitro, ADP-induced (Born aggregometer); assay type: cell-based
# Description: Les études ont été réalisées sur des plasmas riches en plaquettes provenant de sang de rat, l'agrégation étant induite par addition d'acide Adénosine diphosphorique. Les courbes néphélométriques d'agrégation sont obtenues en utilisant un agrégomètre de type BORN, le plasma étant placé en incubation à 37° avec agitation continue de 1100 t/mn (cf. BORN G.V.R et CROSS J. - J. Physiol. 168 (1962) 178.
# [6] = system: rats mâles SHR (souche OKAMOTO); assay: Antihypertensive action in the non-anaesthetised SHR rat (systolic blood pressure, sphygmomanometric method); assay type: in vivo; conditions: 60 mg/kg PO, acute or chronic not given, 24 h after dosing
# Source text: L'étude a été effectuée sur des lots de rats mâles SHR (souche OKAMOTO) âgés de 16 semaines. La pression artérielle systolique est déterminée par la méthode sphygmomanométrique (électro sphygmogra- phe NARCO biosystems type PE 300). Les mesures de tension sont réalisées 24 heures après administration d'un composé de formule générale I, la pression artérielle systolique est calculée à partir de la moyenne de 6 à 8 mesures.
# [7] = human erythrocytes, read-out: EFFET SUR LE COTRANSPORT Na-K IC 50
# [8] = in vitro, aggregating agent ADP, rat platelet-rich plasma, 37°, M not defined in the text, mM printed only in the TICLOPIDINE line, read-out: M à 50
smiles,measurement,setting,value
Oc1ccccc1CCOc1ccc(F)cc1 [ex 30],IC50,[1],4 µM
same,minimal effective dose,"[2]; R = RAT, diuretic activity",12 mg/kg
same,minimal effective dose,"[3]; S = SOURIS, diuretic activity",25 mg/kg
same,IC50,[4]; [7],170 µM
same,IC50,[5]; [8],0.8 mM
Oc1ccccc1CCOc1ccc2ccccc2c1 [ex 56],IC50,[1],200 µM
same,Pouvoir diurétique en %,[2]; R = RAT,R : Inactif S : Inactif
same,Rapport Na/K en %,[2]; R = RAT,R : Inactif S : Inactif
same,Pouvoir diurétique en %,[3]; S = SOURIS,R : Inactif S : Inactif
same,Rapport Na/K en %,[3]; S = SOURIS,R : Inactif S : Inactif
same,IC50,[4]; [7],95 µM
same,IC50,[5]; [8],0.3 mM
Cc1ccc(CCOc2ccc(F)cc2)c(O)c1C [Ex 78],IC50,[5]; [8],0.7 mM
Oc1ccccc1CCOc1ccccc1 [Ex 12],IC50,[5]; [8],1.6 mM
CC(=O)NCCCCCC(=O)Oc1ccccc1CCOc1ccc(F)cc1 [ex 139],minimal effective dose,"[2]; R = RAT, diuretic activity",25 mg/kg
same,minimal effective dose,"[3]; S = SOURIS, diuretic activity",25 mg/kg
Oc1ccc2ccccc2c1CCOc1ccc(F)cc1 [ex 48],minimal effective dose,"[2]; R = RAT, diuretic activity",25 mg/kg
same,minimal effective dose,"[3]; S = SOURIS, diuretic activity",100 mg/kg
Oc1ccc(Oc2ccccc2)cc1CCOc1ccc(F)cc1 [Ex 100],IC50,[5]; [8],1.1 mM
CC(C)(C)c1ccc(O)c(CCOc2ccc(F)cc2)c1 [Ex 52],IC50,[5]; [8],0.75 mM
CC(C)c1ccc(O)c(CCOc2ccc(F)cc2)c1 [Ex 82],IC50,[5]; [8],0.55 mM
Oc1c(CCOc2ccc(F)cc2)ccc2ccccc12 [ex 46],IC50,[1],200 µM
same,Pouvoir diurétique en %,[2]; R = RAT,R : Inactif S : Inactif
same,Rapport Na/K en %,[2]; R = RAT,R : Inactif S : Inactif
same,Pouvoir diurétique en %,[3]; S = SOURIS,R : Inactif S : Inactif
same,Rapport Na/K en %,[3]; S = SOURIS,R : Inactif S : Inactif
same,IC50,[4]; [7],95 µM
Oc1ccc(OCCc2ccccc2O)cc1 [Ex 84],IC50,[5]; [8],0.75 mM
"CCCCNc1cc(C(=O)O)cc(S(N)(=O)=O)c1Oc1ccccc1 [BUMETANIDE, reference compound]",IC50,[1],300 µM
same,IC50,[4],0.66 µM
Oc1ccc(O)c(CCOc2ccc(F)cc2)c1 [Ex 102],IC50,[5]; [8],0.7 mM
NC(=O)c1ccc(O)c(CCOc2ccc(F)cc2)c1 [ex 163],minimal effective dose,"[2]; R = RAT, diuretic activity",6 mg/kg
same,minimal effective dose,"[3]; S = SOURIS, diuretic activity",25 mg/kg
Oc1ccc(O)c(CCOc2ccccc2)c1 [ex 42],IC50,[1],12 µM
same,minimal effective dose,"[2]; R = RAT, diuretic activity",12 mg/kg
same,Pouvoir diurétique en %,[3]; S = SOURIS,Inactif
same,Rapport Na/K en %,[3]; S = SOURIS,Inactif
same,IC50,[4]; [7],40 µM
same,IC50,[5]; [8],1.2 mM
COc1ccc(O)c(CCOc2ccc(Cl)cc2)c1 [ex 26],IC50,[1],40 µM
same,minimal effective dose,"[2]; R = RAT, diuretic activity",50 mg/kg
same,minimal effective dose,"[3]; S = SOURIS, diuretic activity",100 mg/kg
same,IC50,[4]; [7],70 µM
CCCc1cccc(CCOc2ccc(F)cc2)c1O [Ex 86],IC50,[5]; [8],1.55 mM
NS(=O)(=O)c1cc2c(cc1Cl)NCNS2(=O)=O [HYDROCHLOROTHIAZIDE],Variation de l'effet anti-hyper-tenseur 24 heures après produit,[6],FUROSEMIDE non actif HYDROCHLOROTHIAZIDE non actif
COc1ccc(OC(C)=O)c(CCOc2ccc(F)cc2)c1 [ex 25],IC50,[1],120 µM
same,minimal effective dose,"[2]; R = RAT, diuretic activity",12 mg/kg
same,minimal effective dose,"[3]; S = SOURIS, diuretic activity",25 mg/kg
same,IC50,[4]; [7],> 600 µM
CCOC(=O)c1ccc(OCCc2ccccc2O)cc1 [Ex 90],IC50,[5]; [8],0.5 mM
O=P(O)(O)Oc1ccccc1CCOc1ccc(F)cc1 [ex 134],EFFET SUR L'ECHANGEUR D'ANIONS IC 50,[1],Non actif
same,minimal effective dose,[2]; Rattus norvegicus,6 mg/kg
same,minimal effective dose,[3],25 mg/kg
same,EFFET SUR LE COTRANSPORT Na-K IC 50,[4]; human erythrocytes,Non actif
same,IC50,"[5]; Rattus norvegicus, Platelet, read-out: M à 50",1.3 mM
same,IC50,"[5]; Rattus norvegicus, Platelet, read-out: V à 50",1.5 mM
CC(COc1ccc(F)cc1)c1ccccc1O (stereo not shown) [ex 172],IC50,[1],75 µM
same,minimal effective dose,"[2]; R = RAT, diuretic activity",25 mg/kg
same,minimal effective dose,"[3]; S = SOURIS, diuretic activity",100 mg/kg
same,IC50,[4]; [7],~400 µM
same,IC50,[5]; [8],0.95 mM
Cc1ccc(O)c(CCOc2ccc(F)cc2)c1 [Ex 54],M à 50,"[5]; in vitro, aggregating agent ADP, rat platelet-rich plasma, 37°, M not defined in the text, mM printed only in the TICLOPIDINE line",inactif
CC(=O)Oc1c(CCOc2ccc(F)cc2)cccc1C(C)C [Ex 81],IC50,[5]; [8],1 mM
C=CCOc1ccc(CCOc2ccccc2)c(O)c1 [Ex 64],IC50,[5]; [8],0.5 mM
Oc1cccc(CCOc2ccc(F)cc2)c1 [Ex 174],IC50,[5]; [8],0.4 mM
Oc1ccccc1CCOc1cccc2ccccc12 [Ex 58],IC50,[5]; [8],0.6 mM
"NS(=O)(=O)c1cc(C(=O)O)c(NCc2ccco2)cc1Cl [FUROSEMIDE, reference compound]",minimal effective dose,"[2]; R = RAT, diuretic activity",12 mg/kg
same,minimal effective dose,"[3]; S = SOURIS, diuretic activity",25 mg/kg
same,Variation de l'effet anti-hyper-tenseur 24 heures après produit,[6],FUROSEMIDE non actif HYDROCHLOROTHIAZIDE non actif
O=C(Oc1ccccc1CCOc1ccc(F)cc1)c1cccnc1 [Ex 129],IC50,[5]; [8],0.6 mM
"Cc1cccc(C)c1NC(=O)c1cc(S(N)(=O)=O)c(Cl)cc1O [XIPAMIDE, reference compound]",IC50,[1],25 µM
Oc1cc2c(cc1CCOc1ccc(F)cc1)OCCO2 [ex 107],minimal effective dose,"[2]; R = RAT, diuretic activity",25 mg/kg
same,minimal effective dose,"[3]; S = SOURIS, diuretic activity",100 mg/kg
